From patent US11149057B2, “Neuroactive steroids, compositions, and uses thereof” (Sage Therapeutics, Inc., priority 2014, dated 2021)

How the values were obtained:
[1] = biological target: [35S]-TBPS binding, rat brain cortical membranes; assay: Steroid inhibition of [35S]-TBPS binding; conditions: 3 nM [35S]-TBPS, in the presence of 5 μM GABA
Protocol: [35S]-Butylbicyclophosphorothionate (TBPS) binding assays using rat brain cortical membranes in the presence of 5 μM GABA has been described (Gee et al, J. Pharmacol. Exp. Ther. 1987, 241, 346-353; Hawkinson et al, Mol. Pharmacol. 1994, 46, 977-985; Lewin, A. H et al., Mol. Pharmacol. 1989, 35, 189-194).
Briefly, cortices are rapidly removed following decapitation of carbon dioxide-anesthetized Sprague-Dawley rats (200-250 g). The cortices are homogenized in 10 volumes of ice-cold 0.32 M sucrose using a glass/teflon homogenizer and centrifuged at 1500×g for 10 min at 4° C. The resultant supernatants are centrifuged at 10,000×g for 20 min at 4° C. to obtain the P2 pellets. The P2 pellets are resuspended in 200 mM NaCl/50 mM Na—K phosphate pH 7.4 buffer and centrifuged at 10,000×g for 10 min at 4° C. This washing procedure is repeated twice and the pellets are resuspended in 10 volumes of buffer. Aliquots (100 μL) of the membrane suspensions are incubated with 3 nM [^35S]-TBPS and 5 μL aliquots of test drug dissolved in dimethyl sulfoxide (DMSO) (final 0.5%) in the presence of 5 μM GABA. The incubation is brought to a final volume of 1.0 mL with buffer. Nonspecific binding is determined in the presence of 2 μM unlabeled TBPS and ranged from 15 to 25%. […] Filter bound radioactivity is measured by liquid scintillation spectrometry. […]

α1β2γ2 GABAA receptors = biological target: T1, α1β2γ2 GABAA receptors (Homo sapiens, UniProt P14867+P47870); assay: Patch clamp electrophysiology (QPatch) of recombinant α1β2γ2 GABAA receptors in LTK cells; type: cell-based; conditions: 10 μM test article, GABA EC20 = 2 μM, read-out: GABA (α1β2γ2) Qpatch in Ltk, % efficacy at 10 μM
T1 construct: expressed in transfected cells

α4β3δ GABAA receptors = biological target: T2, α4β3δ GABAA receptors (Homo sapiens, UniProt P28472+P48169); assay: Manual patch clamp electrophysiology of recombinant α4β3δ GABAA receptors in CHO cells; type: cell-based; conditions: 10 μM test article, GABA EC20 = 2 μM, read-out: GABA (α4β3δ) Manual patch in CHO, % efficacy at 10 μM
T2 construct: expressed in transfected cells; host or cells: CHO cells (transient transfection, Lipofectamine)
T2 sequence (P48169 36-554): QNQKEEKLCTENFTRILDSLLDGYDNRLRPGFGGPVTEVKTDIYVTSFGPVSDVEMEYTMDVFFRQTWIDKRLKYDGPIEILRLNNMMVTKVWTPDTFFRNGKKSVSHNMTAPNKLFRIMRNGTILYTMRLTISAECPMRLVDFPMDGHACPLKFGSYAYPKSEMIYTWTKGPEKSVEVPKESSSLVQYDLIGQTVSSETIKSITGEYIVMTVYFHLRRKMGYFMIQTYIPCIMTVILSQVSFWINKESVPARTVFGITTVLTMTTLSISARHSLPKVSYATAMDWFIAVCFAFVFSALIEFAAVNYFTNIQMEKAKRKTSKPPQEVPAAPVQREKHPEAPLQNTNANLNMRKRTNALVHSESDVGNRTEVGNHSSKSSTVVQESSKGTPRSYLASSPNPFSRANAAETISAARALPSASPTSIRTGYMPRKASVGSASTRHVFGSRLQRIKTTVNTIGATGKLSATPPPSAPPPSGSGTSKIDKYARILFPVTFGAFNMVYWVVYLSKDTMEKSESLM
T2 sequence (P28472 26-473): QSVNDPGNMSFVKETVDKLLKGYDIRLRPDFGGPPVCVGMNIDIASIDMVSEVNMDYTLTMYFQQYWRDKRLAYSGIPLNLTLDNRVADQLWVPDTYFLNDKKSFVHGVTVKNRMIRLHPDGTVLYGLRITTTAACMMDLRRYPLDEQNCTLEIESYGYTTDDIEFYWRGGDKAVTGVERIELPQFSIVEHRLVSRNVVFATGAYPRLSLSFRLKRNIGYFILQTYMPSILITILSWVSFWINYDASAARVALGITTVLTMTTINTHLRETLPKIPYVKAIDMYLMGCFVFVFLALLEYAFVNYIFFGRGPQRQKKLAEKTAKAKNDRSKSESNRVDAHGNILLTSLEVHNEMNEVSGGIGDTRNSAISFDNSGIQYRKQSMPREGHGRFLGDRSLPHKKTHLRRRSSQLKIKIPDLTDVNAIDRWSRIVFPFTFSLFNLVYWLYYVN
T2 sequence (O14764 17-452 partner limits assumed): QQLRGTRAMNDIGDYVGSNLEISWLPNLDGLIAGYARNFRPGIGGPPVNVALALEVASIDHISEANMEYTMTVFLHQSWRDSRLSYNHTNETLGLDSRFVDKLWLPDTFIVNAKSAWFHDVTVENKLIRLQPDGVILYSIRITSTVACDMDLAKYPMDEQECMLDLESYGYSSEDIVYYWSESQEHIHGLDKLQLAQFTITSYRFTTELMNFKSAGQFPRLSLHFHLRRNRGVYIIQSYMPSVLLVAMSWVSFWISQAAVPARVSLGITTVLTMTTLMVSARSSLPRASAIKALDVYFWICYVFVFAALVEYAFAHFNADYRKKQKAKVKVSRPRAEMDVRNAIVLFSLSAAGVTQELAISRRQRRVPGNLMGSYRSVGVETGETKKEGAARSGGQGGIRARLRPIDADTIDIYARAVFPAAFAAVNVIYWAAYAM

T1 sequence (P14867 28-456): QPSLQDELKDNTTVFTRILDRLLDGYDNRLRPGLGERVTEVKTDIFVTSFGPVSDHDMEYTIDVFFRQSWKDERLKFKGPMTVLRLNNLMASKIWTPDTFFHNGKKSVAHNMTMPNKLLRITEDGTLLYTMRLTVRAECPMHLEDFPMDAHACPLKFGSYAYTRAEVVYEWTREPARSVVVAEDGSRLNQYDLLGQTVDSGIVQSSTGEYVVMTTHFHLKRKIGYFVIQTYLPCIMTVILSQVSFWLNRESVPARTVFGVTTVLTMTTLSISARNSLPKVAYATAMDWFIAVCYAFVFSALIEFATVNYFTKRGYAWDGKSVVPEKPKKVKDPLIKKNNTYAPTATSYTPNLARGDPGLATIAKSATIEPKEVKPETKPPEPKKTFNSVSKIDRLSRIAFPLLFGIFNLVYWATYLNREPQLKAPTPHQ
T1 sequence (P47870 25-512 limits assumed): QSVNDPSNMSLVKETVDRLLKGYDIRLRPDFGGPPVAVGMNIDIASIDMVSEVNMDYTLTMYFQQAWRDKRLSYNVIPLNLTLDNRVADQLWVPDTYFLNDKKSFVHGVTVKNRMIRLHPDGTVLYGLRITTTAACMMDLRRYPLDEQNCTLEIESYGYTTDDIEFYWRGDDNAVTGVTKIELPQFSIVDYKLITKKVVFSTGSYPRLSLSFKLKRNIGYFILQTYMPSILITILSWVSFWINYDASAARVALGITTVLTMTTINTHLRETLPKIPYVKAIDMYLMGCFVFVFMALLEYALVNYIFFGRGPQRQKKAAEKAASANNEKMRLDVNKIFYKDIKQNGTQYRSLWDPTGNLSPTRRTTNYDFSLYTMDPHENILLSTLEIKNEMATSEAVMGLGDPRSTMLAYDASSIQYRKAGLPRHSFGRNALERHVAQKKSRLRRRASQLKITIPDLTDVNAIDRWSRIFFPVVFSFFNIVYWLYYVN
T1 sequence (P18507 40-475 partner): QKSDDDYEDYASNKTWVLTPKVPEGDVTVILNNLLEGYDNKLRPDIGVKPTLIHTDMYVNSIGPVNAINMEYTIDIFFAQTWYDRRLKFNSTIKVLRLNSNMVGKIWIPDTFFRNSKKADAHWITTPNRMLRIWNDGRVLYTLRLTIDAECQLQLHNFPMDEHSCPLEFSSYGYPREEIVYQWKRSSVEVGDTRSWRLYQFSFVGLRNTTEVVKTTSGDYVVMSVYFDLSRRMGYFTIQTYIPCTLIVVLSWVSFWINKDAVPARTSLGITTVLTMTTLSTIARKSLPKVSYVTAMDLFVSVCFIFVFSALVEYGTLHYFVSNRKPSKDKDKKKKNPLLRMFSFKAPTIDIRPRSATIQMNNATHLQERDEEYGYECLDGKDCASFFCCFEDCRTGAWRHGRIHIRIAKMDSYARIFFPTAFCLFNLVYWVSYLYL

SMILES: CC(=O)[C@H]1CC[C@H]2[C@@H]3CC[C@@H]4C[C@](C)(O)CC[C@]4(COC(C)C)[C@H]3CC[C@]12C [Compound 5]
- IC50 [1]: < 0.01 µM
- Emax at 10 µM (α1β2γ2 GABAA receptors): > 500%
- Emax at 10 µM (α4β3δ GABAA receptors): > 500%
